Experimental data taken from US7666857B2, “2-(3,4-dimethylphenyl)-4-{[2-hydroxy-3′-(1h-tetrazol-5-yl)biphenyl-3-yl]-hydrazono}-5-methyl-2,4-dihydropyrazol-3-one choline” (SmithKline Beecham Corp., priority 2004, dated 2010).

How the values were obtained:
[1] = in vivo; choline salt compared with the free acid
solubility in water = assay type: physicochemical

solubility in water (solubility in water) | SMILES | bioavailability [1] | oral exposure [1]
– | CC1=NN(c2ccc(C)c(C)c2)C(=O)/C1=N\Nc1cccc(-c2cccc(-c3nnn[nH]3)c2)c1O [Compound A, 2-(3,4-dimethylphenyl)-4-{[2-hydroxy-3′-(1H-tetrazol-5-yl)biphenyl-3-yl]-hydrazono}-5-methyl-2,4-dihydropyrazol-3-one choline] | enhanced | enhanced
poorly soluble | CC1=NN(c2ccc(C)c(C)c2)C(=O)C1=NNc1cccc(-c2cccc(-c3nnn[nH]3)c2)c1O [free acid, 2-(3,4-dimethylphenyl)-4-{[2-hydroxy-3′-(1H-tetrazol-5-yl)biphenyl-3-yl]-hydrazono}-5-methyl-2,4-dihydropyrazol-3-one] | – | –
